Source: patent publication US9828348B2, “Benzimidazole derivatives and use thereof” (priority 2013, dated 2017)

Each molecule was assayed against human Nav1.7 (Homo sapiens (Human), UniProt Q15858) (assay: FLIPR or FLIPR TETRA sodium dye assay with KCl and test article pre-incubation). Conditions: read-out: Nav1.7 Activity (μM) FLIPR assay IC50 (μM) ± SEM.
Sequence of human Nav1.7 (Q15858 with tags, fused parts or gaps limits assumed): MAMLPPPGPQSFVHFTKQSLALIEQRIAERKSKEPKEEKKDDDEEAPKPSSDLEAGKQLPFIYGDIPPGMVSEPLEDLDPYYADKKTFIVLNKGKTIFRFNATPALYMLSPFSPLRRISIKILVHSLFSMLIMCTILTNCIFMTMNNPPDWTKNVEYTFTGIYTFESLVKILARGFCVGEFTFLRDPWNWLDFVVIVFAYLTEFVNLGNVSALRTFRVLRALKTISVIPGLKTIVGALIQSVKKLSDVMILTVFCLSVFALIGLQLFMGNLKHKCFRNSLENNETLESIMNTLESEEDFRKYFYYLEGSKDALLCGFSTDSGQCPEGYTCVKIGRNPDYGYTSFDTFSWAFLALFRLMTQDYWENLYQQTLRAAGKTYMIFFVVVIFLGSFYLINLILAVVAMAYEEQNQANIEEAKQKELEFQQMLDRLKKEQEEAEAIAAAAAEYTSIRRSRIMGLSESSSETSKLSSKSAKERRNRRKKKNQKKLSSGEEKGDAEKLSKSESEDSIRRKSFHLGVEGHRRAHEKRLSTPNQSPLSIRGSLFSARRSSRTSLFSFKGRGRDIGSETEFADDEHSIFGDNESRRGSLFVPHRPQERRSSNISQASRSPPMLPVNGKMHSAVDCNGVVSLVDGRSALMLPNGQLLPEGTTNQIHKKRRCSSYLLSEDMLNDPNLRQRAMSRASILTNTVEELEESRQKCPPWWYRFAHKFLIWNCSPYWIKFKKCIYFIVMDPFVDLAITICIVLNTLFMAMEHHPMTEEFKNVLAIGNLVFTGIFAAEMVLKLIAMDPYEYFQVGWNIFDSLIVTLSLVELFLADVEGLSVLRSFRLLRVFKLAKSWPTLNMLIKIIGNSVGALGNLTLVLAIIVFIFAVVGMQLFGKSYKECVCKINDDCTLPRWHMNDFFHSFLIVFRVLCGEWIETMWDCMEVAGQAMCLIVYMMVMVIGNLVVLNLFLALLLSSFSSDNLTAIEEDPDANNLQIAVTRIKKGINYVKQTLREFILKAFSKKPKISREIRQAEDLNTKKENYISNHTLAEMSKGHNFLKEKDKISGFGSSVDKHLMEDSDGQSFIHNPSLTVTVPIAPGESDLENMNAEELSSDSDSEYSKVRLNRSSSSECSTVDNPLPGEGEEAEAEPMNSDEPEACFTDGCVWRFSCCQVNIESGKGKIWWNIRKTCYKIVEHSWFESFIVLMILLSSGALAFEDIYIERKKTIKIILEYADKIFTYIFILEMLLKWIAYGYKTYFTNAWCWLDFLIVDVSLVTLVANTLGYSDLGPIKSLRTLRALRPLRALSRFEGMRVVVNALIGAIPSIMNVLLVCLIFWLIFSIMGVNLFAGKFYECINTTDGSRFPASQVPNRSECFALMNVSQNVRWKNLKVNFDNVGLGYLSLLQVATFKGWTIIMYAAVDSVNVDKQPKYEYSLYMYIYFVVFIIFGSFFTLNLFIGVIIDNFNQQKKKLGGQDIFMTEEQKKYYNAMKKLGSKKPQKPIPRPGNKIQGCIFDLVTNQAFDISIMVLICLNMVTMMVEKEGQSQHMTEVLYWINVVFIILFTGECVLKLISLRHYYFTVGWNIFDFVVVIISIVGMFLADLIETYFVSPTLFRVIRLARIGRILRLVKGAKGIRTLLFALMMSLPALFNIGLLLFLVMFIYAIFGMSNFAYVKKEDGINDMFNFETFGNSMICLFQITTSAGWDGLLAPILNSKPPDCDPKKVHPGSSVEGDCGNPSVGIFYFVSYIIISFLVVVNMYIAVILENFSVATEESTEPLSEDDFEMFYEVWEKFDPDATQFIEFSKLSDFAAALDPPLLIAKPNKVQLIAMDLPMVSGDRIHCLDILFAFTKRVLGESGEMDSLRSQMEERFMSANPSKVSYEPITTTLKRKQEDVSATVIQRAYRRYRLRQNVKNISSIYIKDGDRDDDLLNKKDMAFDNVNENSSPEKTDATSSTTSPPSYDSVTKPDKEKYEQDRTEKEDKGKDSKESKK
Format: cell-based
Molecule Fc1ccc(Oc2ccc(-n3c(-c4c[nH]cn4)nc4ccccc43)cc2)cc1 [Compound 11, 1-(4-(4-fluorophenoxy)phenyl)-2-(1H-imidazol-4-yl)-1H-benzo[d]imidazole] has an IC50 of 0.102 ± 0.022 µM.
Cc1nnc(Cc2nc3ccccc3n2-c2ccc(Oc3ccc(F)cc3)cc2)[nH]1 [Compound 16, 1-(4-(4-fluorophenoxy)phenyl)-2-((5-methyl-4H-1,2,4-triazol-3-yl)methyl)-1H-benzo[d]imidazole] was tested, and the IC50 was 0.957 ± 0.092 µM.

Same assay, conditions: recombinant human Nav1.7 in HEK293 cells; CoroNa Green sodium dye, KCl pre-incubation; veratridine and scorpion venom agonists; read-out: Nav1.7 Activity (μM) FLIPR assay IC50 (μM) ± SEM
Molecule Fc1ccc(Oc2ccc(-n3c(C4CCOCC4)nc4ccccc43)cc2)cc1 [Compound 9, 1-(4-(4-fluorophenoxy)phenyl)-2-(tetrahydro-2H-pyran-4-yl)-1H-benzo[d]imidazole] has an IC50 of 0.63 ± 0.05 µM.
Cn1cc(Cl)c(-c2nc3ccccc3n2-c2ccc(Oc3ccc(F)cc3)cc2)n1 [Compound 10, 2-(4-chloro-1-methyl-1H-pyrazol-3-yl)-1-(4-(4-fluorophenoxy)phenyl)-1H-benzo[d]imidazole] showed an IC50 of 0.313 ± 0.032 µM.
O=C1CC[C@@H](c2nc3ccccc3n2-c2ccc(Oc3ccc(F)cc3)cc2)N1 [Compound 14, (S)-5-(1-(4-(4-fluorophenoxy)-phenyl)-1H-benzo[d]imidazol-2-yl)pyrrolidin-2-one] gave an IC50 of 0.571 ± 0.07 µM.
Fc1ccc(Oc2ccc(-n3c(Cc4nnn[nH]4)nc4ccccc43)cc2)cc1 [Compound 15, 2-((1H-tetrazol-5-yl)methyl)-1-(4-(4-fluorophenoxy)phenyl)-1H-benzo[d]imidazole] was tested, and the IC50 was greater than 20 µM.
With Fc1ccc(Oc2ccc(-n3c(CCN4CCCCC4)nc4ccccc43)cc2)cc1 [Compound 17, 1-(4-(4-fluorophenoxy)phenyl)-2-(2-(piperidin-1-yl)ethyl)-1H-benzo[d]imidazole] the IC50 was 0.081 ± 0.009 µM.
Molecule NC(=O)CN1CCC(c2nc3ccccc3n2-c2ccc(Oc3ccc(F)cc3)cc2)CC1 [Compound 23, 2-(4-(1-(4-(4-fluorophenoxy)phenyl)-1H-benzo[d]imidazol-2-yl)piperidin-1-yl)acetamide] has an IC50 of 1.49 ± 0.225 µM.
In the case of CCN(CC)C(=O)CN1CCC(c2nc3ccccc3n2-c2ccc(Oc3ccc(F)cc3)cc2)CC1 [Compound 24, N,N-diethyl-2-(4-(1-(4-(4-fluorophenoxy)phenyl)-1H-benzo[d]imidazol-2-yl)piperidin-1-yl)acetamide], the IC50 is reported as 0.516 ± 0.029 µM.
NC(=O)CN1CCC[C@H]1c1nc2ccccc2n1-c1ccc(Oc2ccc(F)cc2)cc1 [Compound 25, (S)-2-(2-(1-(4-(4-fluorophenoxy)phenyl)-1H-benzo[d]imidazol-2-yl)pyrrolidin-1-yl)acetamide] gave an IC50 of 1.22 ± 0.035 µM.
